The test system of series [1] is IL-1β. The series is described as follows: THP-1 AlphaLISA IL-1β cytokine inhibition assay (differentiated THP-1 cells). The following applies: Homo sapiens, LPS 24 hr then Nigericin 1 hour, class symbols. The class given is cell-based. The protocol:
Biological Example 1—THP-1 AlphaLISA IL-1β
Measuring Inhibitory Effects on IL-1, Cytokine Output from THP-1s
(§1) The cytokine inhibition profiles of compounds of formula (I) were determined in a differentiated THP-1 cell assay. All assays were performed in RPMI-1640 growth medium (Gibco), supplemented with 10% fetal bovine serum (FBS; Gibco), 1% penicillin-streptomycin and 1% sodium pyruvate unless specified otherwise. The IL-1p cytokine inhibition assay was run in a background of differentiated THP-1 cells as described below. All reagents described were from Sigma-Aldrich unless specified otherwise. Compounds were prepared as 10 mM DMSO stocks.
(§2) THP-1 cells were expanded as a suspension up to 80% confluence in appropriate growth medium. Cells were harvested, suspended, and treated with an appropriate concentration of phorbol 12-myristate 13-acetate (PMA) over a 72 hr period (37° C./5% CO2).
(§3) Following 72 hrs of THP-1 cell incubation, cellular medium was removed and replaced with fresh growth media containing 1% of FBS. Working concentrations of compounds were prepared separately in 10% FBS treated growth medium and pre-incubated with the cells for 30 minutes (37° C./5% CO2). Following the 30 minute compound pre-incubation, THP-1s were treated with an appropriate concentration of LPS and the cells were subsequently incubated for a 24 hr period (37° C./5% CO2). An appropriate final concentration of Nigericin was then dispensed into the THP-1 plates and incubated for 1 hour (37° C./5% CO2) before THP-1 supernatants were harvested and collected in separate polypropylene 96-well holding plates.
(§4) Reagents from an IL-1β and IL-6 commercial kit (Perkin Elmer) were prepared and run according to the manufacturer's instructions. Subsequently, fluorescence signal detection in a microplate reader was measured (EnVision® Multilabel Reader, Perkin Elmer).
(§5) Percentage inhibition was calculated per cytokine by normalising the sample data to the high and low controls used within each plate (+/−LPS respectively). Percentage inhibition was then plotted against compound concentration and the 50% inhibitory concentration (IC50) was determined from the resultant concentration-response curve.
A general note: Alpha assays give light when donor and acceptor beads are brought close together.

Series [2] relates to IL-6. The series is described as follows: THP-1 AlphaLISA IL-6 cytokine inhibition assay (differentiated THP-1 cells). It counts as cell-based. The note with it: Homo sapiens, LPS 24 hr then Nigericin 1 hour, class symbols. The protocol: as §1, §2, §3, §4, §5
The subject of series [3] is NRF2. The series is described as follows: NRF2 activation assay (DiscoverX PathHunter NRF2 translocation kit, U2OS cells). The following applies: Homo sapiens, 6 hours; for Emax: normalised to DMF high control. It counts as cell-based. Here is the method:
Biological Example 2—NRF2 Activation Assay
Measuring Compound Activation Effects on the Anti-Inflammatory Transcription Factor NRF2 in DiscoverX PathHunter NRF2 Translocation Kit
Potency and efficacy of compounds of formula (I) against the target of interest to activate NRF2 (nuclear factor erythroid 2-related factor 2) were determined using the PathHunter NRF2 translocation kit (DiscoverX). The NRF2 translocation assay was run using an engineered recombinant cell line, utilising enzyme fragment complementation to determine activation of the Keap1-NRF2 protein complex and subsequent translocation of NRF2 into the nucleus. Enzyme activity was quantified using a chemiluminescent substrate consumed following the formation of a functional enzyme upon PK-tagged NRF2 translocation into the nucleus.
Additionally, a defined concentration of DMF was used as the ‘High’ control to normalise test compound activation responses to.
U2OS PathHunter eXpress cells were thawed from frozen prior to plating. Following plating, U2OS cells were incubated for 24 hrs (37° C./5% CO2) in commercial kit provided cell medium.
Following 24 hrs of incubation, plated U2OS cells were directly treated with an appropriate final concentration of compound. […]
Following compound treatment, the U2OS plates were incubated for a further 6 hours (37° C./5% CO2) before detection reagent from the PathHunter NRF2 commercial kit was prepared and added to test plates according to the manufacturer's instructions. Subsequently, the luminescence signal detection was measured in a microplate reader (PHERAstar®, BMG Labtech).
Percentage activation was calculated by normalising the sample data to the high and low controls used within each plate (+/−DMF). Percentage activation/response was then plotted against compound concentration and the 50% activation concentration ([…]) was determined from the plotted concentration-response curve.

A short description of series [4]: Hepatocyte stability assay, mouse cryopreserved hepatocytes. The class given is in vitro ADME. The note with it: cryopreserved hepatocytes; Mouse hepatocytes, 10 μM, 60 min; class symbols; read-out: T½. From the text:
(§6) Biological Example 3—Hepatocyte Stability Assay
(§7) Defrosted cryo-preserved hepatocytes (viability >70%) were used to determine the metabolic stability of a compound via calculation of intrinsic clearance (CIint; a measure of the removal of a compound from the liver in the absence of blood flow and cell binding). Clearance data are particularly important for in vitro work as they can be used in combination with in vivo data to predict the half-life and oral bioavailability of a drug.
(§8) The metabolic stability in hepatocytes assay involves a time-dependent reaction using both positive and negative controls. The cells were pre-incubated at 37° C. and spiked with test compound (and positive control); samples taken at pre-determined time intervals were analysed to monitor the change in concentration of the initial drug compound over 60 minutes. A buffer incubation reaction (with no hepatocytes present) acted as a negative control and two cocktail solutions, containing compounds with known high and low clearance values (verapamil/7-hydroxycoumarin and propranolol/diltiazem), acted as positive controls. • 1. The assay was run with a cell concentration of 0.5×10^6 cells/mL in Leibovitz buffer. • 2. All compounds and controls were run in duplicate. • 3. Compound concentration was 10 μM. • 4. All compounds and controls were incubated with both cells and buffer to show turnover was due to hepatic metabolism. • 5. All wells on the incubation plate had 326.7 μL of either cells or buffer added. • 6. Prior to assay, cell and buffer-only incubation plates were preincubated for 10 mins at 37° C. • 7. The assay was initiated by adding compounds, 3.3 μL of 1 mM in 10% DMSO-90% Buffer; final DMSO concentration is 0.1%. • 8. Samples were taken at regular timepoints (0, 5, 10, 20, 40, 60 min) until 60 mins. • 9. Sample volume was 40 μL and was added to 160 μL of crash solvent (acetonitrile with internal standard) and stored on ice. • 10. At the end of the assay, the crash plates were centrifuged at 3500 rpm for 20 mins at 4° C. • 11. 80 μL of clear supernatant was removed and mixed with 80 μL of deionised water before being analysed by LC-MS/MS.
(§9) Raw LC-MS/MS data was exported to, and analysed in, Microsoft Excel for determination of intrinsic clearance. The percentage remaining of a compound was monitored using the peak area of the initial concentration as 100%. Intrinsic clearance and half-life values were calculated using a graph of the natural log of percentage remaining versus the time of reaction in minutes. Half-life (min) and intrinsic clearance (CIint in μL min^−1 10^−6 cells) values were calculated using the gradient of the graph (the elimination rate constant, k) and Equations 1 and 2.

Series [5] deals with cryo-preserved hepatocytes. The series is described as above. The class given is in vitro ADME. The note with it: Mouse hepatocytes, 10 μM, 60 min; class symbols.
Source text: as §6, §7, §8, §9

Series [6] can be described thus: Hepatocyte stability assay, human cryopreserved hepatocytes. The following applies: cryopreserved hepatocytes; Human hepatocytes, 10 μM, 60 min; class symbols; read-out: T½. The class given is in vitro ADME.
Source text: as §6, §7, §8, §9

Structures can show the parent of a compound that is named as a salt.

Take `C=C(Cc1nc(CCCCCCCC)no1)C(=O)OCC(=O)O` [Example 1, 2-((2-((3-octyl-1,2,4-oxadiazol-5-yl)methyl)acryloyl)oxy)acetic acid]: the concentration for half-maximal inhibition (IC50) in series [1] and in series [2] was < 5 µM each time. For the same molecule, in series [3] (class symbols), the EC50 (usually the concentration at which the effect is half-maximal) is < 5 µM. Further, in series [3] (class symbols), the Emax (as a rule, the greatest response seen or fitted, relative to the assay's reference) was 135 to 165%. Further, the half-life at 10 μM was ≤ 4 min in series [4] and 5 to 59 min in series [6]. For the same molecule, the Clint result in series [5] is recorded as “+ (+ means ≥351)”.

With `C=C(Cc1nc(CCCCCCCC)no1)C(=O)OCCC(=O)O` [Example 2], in series [1], the IC50 (as a rule, the concentration that inhibits the measured activity by half) is < 5 µM. Further, in series [3] (class symbols), the EC50 is < 5 µM and the Emax is 135 to 165%. In series [4], the half-life at 10 μM is ≤ 4 min. Also, the Clint result in series [5] was “+ (+ means ≥351)”. Moreover, the half-life at 10 μM in series [6] is 5 to 59 min.

Take `C=C(Cc1nc(C2(c3ccc(C(F)(F)F)cc3)CC2)no1)C(=O)OCC(=O)O` [Example 4, 2-((2-((3-(1-(4-(trifluoromethyl)phenyl)cyclopropyl)-1,2,4-oxadiazol-5-yl)methyl)acryloyl)oxy)acetic acid]: the figures for the IC50 in series [1] and in series [2] were < 5 µM and 5 to 10 µM, respectively. In series [3] (class symbols), the EC50 lay in the range of 5 to 10 µM. In series [3] (class symbols), this molecule yielded an Emax of 135 to 165%. Moreover, the results for the half-life at 10 μM in series [4] and in series [6] were 5 to 11 min and 60 to 100 min, respectively. Also, the Clint entry in series [5] was “++ (++ means 95-350)”.

On to `C=C(Cc1nc(CCCCCCCC)no1)C(=O)O[C@H](CC(=O)O)C(F)(F)F` [Example 5, (R)-4,4,4-trifluoro-3-((2-((3-octyl-1,2,4-oxadiazol-5-yl)methyl)acryloyl)oxy)butanoic acid], for which the IC50 in series [1] and in series [2] was < 5 µM each time. In series [3] (class symbols), the EC50 is < 5 µM. The Emax in series [3] (class symbols) was in the range of 135 to 165%. Besides, the half-life at 10 μM in series [4] is ≤ 4 min; in series [6] it was 5 to 59 min. Besides, in series [5], the Clint result is listed as “+ (+ means ≥351)”.

Take `C=C(Cc1nc(CCCCCCCC)no1)C(=O)O[C@@H](CC(=O)O)C(F)(F)F` [Example 6, (S)-4,4,4-trifluoro-3-((2-((3-octyl-1,2,4-oxadiazol-5-yl)methyl)acryloyl)oxy)butanoic acid]: the half-inhibitory concentration (IC50) in series [1] and in series [2] was < 5 µM each time. In addition, the 50% effective concentration (EC50) in series [3] (class symbols) is < 5 µM. The Emax in series [3] (class symbols) was > 250%. In addition, the half-life at 10 μM in series [4] was ≤ 4 min; in series [6] it was 5 to 59 min. The Clint entry in series [5] was “+ (+ means ≥351)”.

In the case of `C=C(Cc1nc(Cc2ccc(CCCC)cc2)no1)C(=O)O[C@H](CC(=O)O)C(F)(F)F` [Example 9, (R)-3-((2-((3-(4-butylbenzyl)-1,2,4-oxadiazol-5-yl)methyl)acryloyl)oxy)-4,4,4-trifluorobutanoic acid], the IC50 in series [1] was < 5 µM. Moreover, the IC50 in series [2] is < 5 µM. Also, in series [3] (class symbols), the EC50 was < 5 µM and the Emax is 101 to 134%.

As to `C=C(Cc1nc(Cc2ccc(CCCCC)cc2)no1)C(=O)O[C@H](CC(=O)O)C(F)(F)F` [Example 11, (R)-4,4,4-trifluoro-3-((2-((3-(4-pentylbenzyl)-1,2,4-oxadiazol-5-yl)methyl)acryloyl)oxy)butanoic acid], the IC50 in series [1] was < 5 µM. In series [2], the IC50 is < 5 µM. Also, in series [3] (class symbols), the EC50 was < 5 µM and the Emax fell in the range of 101 to 134%.

`C=C(Cc1nc(Cc2ccc(CCCCC)cc2)no1)C(=O)O[C@@H](CC(=O)O)C(F)(F)F` [Example 12, (S)-4,4,4-trifluoro-3-((2-((3-(4-pentylbenzyl)-1,2,4-oxadiazol-5-yl)methyl)acryloyl)oxy)butanoic acid]: the IC50 in series [1] is < 5 µM. The IC50 in series [2] was < 5 µM. In series [3] (class symbols), the EC50 was < 5 µM and the maximal response (Emax) lay in the range of 166 to 250%.

Turning to `C=C(Cc1nc(Cc2ccc(CCCC)cc2)no1)C(=O)OCCC(=O)O` [Example 15, 3-((2-((3-(4-butylbenzyl)-1,2,4-oxadiazol-5-yl)methyl)acryloyl)oxy)propanoic acid], the IC50 in series [1] and in series [2] was < 5 µM throughout. Besides, the half-life at 10 μM is ≤ 4 min in series [4] and 5 to 59 min in series [6]. Further, the Clint result in series [5] is “+ (+ means ≥351)”.

For `C=C(Cc1nc(CCCCCCCC)no1)C(=O)OC(C(F)(F)F)C(C)(C)C(=O)O` (stereo not shown) [Example 17, 4,4,4-trifluoro-2,2-dimethyl-3-((2-((3-octyl-1,2,4-oxadiazol-5-yl)methyl)acryloyl)oxy)butanoic acid], the IC50 in series [1] and in series [2] was < 5 µM each time. Also, the figures for the half-life at 10 μM in series [4] and in series [6] were ≤ 4 min and 5 to 59 min, respectively. Further, the Clint result in series [5] was “+ (+ means ≥351)”.

With `C=C(Cc1nc(Cc2ccc(OC(F)(F)F)cc2)no1)C(=O)OCC(=O)O` [Example 20, 2-((2-((3-(4-(trifluoromethoxy)benzyl)-1,2,4-oxadiazol-5-yl)methyl)acryloyl)oxy)acetic acid], the values for the IC50 in series [1] and in series [2] were 5 to 10 µM and < 5 µM, respectively. Moreover, the results for the half-life at 10 μM in series [4] and in series [6] were 5 to 11 min and > 100 min, respectively. In addition, in series [5], the Clint result is reported as “++ (++ means 95-350)”.

Take `C=C(Cc1nc(CCCCC)no1)C(=O)OCC(=O)O` [Example 21, 2-((2-((3-pentyl-1,2,4-oxadiazol-5-yl)methyl)acryloyl)oxy)acetic acid]: in series [1], the IC50 lay within 21 to 24 µM. This molecule also displayed an IC50 in series [2] of 11 to 20 µM. In series [3] (class symbols), this molecule showed an EC50 of 11 to 21 µM and an Emax of 166 to 250%.

With `COC(=O)/C=C/C(=O)OC` [dimethyl fumarate, reference compound], in series [3] (numeric values), the Emax is 100% and the EC50 was 6.1 µM.

The values are drawn from US12459908B2, “Alpha, beta unsaturated methacrylic esters with anti-inflammatory properties” (Sitryx Therapeutics Limited, priority 2020, dated 2025).
